Results from publication PMC9918429, “ATX-101, a cell-penetrating protein targeting PCNA, can be safely administered as intravenous infusion in patients and shows clinical activity in a Phase 1 study” (Oncogene, 2022).
“Also recorded” adds a separate entry of the source. Ends that are not written are not given here.

How the values were obtained:
[1] = system: patients with advanced solid tumors; test: Phase 1 first-in-human study, weekly intravenous ATX-101 infusion: adverse events, DLT, infusion-related reactions (CTCAE v4.03); assay type: in vivo
Description: Here we report results of the ATX-101 first-in-human study in patients with advanced solid tumors. This open-label, single arm Phase 1 study, consisting of two sub-studies, investigated 4 doses of ATX-101 (20, 30, 45, and 60 mg/m^2) administered intravenously every week. In a first, dose-escalation study pre-defined dose-limiting toxicities and PK were assessed (for DLT definition see Supplementary Table 1). If, after 6 weeks, no tumor progression was measured, treatment could be continued in a second, long-term follow-up study until disease progression or unacceptable toxicity with the primary objective safety/tolerability. Efficacy was a secondary endpoint in both sub-studies. The studies were registered in the Australian New Zealand Clinical Trials Registry (ANZCTR) under the following IDs: 375262 and 375319. Details on methods are given in the Supplementary information.
This Phase 1, open-label, single arm, first-in-human study consisted of two sub-studies. Study ATX101-01 was a dose escalation study in accordance with the traditional 3+3 escalation design^1. Patients were treated over 6 weeks when the first tumor assessment was done. In case of disease stabilization or tumor response, patients could continue treatment in the long-term follow-up study ATX101-02. The data analysis has been combined for both studies.
ATX-101 was administered weekly as intravenous infusion.
Due to the occurrence of infusion related reactions (IRR) in the first patient, a premedication was implemented for subsequent patients. Premedication was optimized by the Safety Monitoring Committee (SMC) during the study resulting in the final recommendation to administer corticosteroids, paracetamol, H1 and H2 inhibitors. This medication became standard practice in Cohort 3. Montelukast (anti-leukotriene) was added in Cohort 4. In addition, on each infusion day, the infusion rate had to be increased in 5 steps from 5 mg/h to a maximum of 120 mg/h.
ATX-101 was administered in 4 dosing cohorts. The starting dose was 20 mg/m², escalated to 30 mg/m², 45 mg/m² and 60 mg/m². An SMC, comprising all principal investigators and medical monitors of sponsor and CRO, recommended dose changes and modifications after the end of each completed cohort and during the entire study.
Toxicities were graded as mild, moderate, severe, life threatening or related to death using the Common Terminology Criteria for Adverse Events (CTCAE) Version 4.03. Safety assessments included the incidence of dose limiting toxicities (DLTs), treatment-emergent adverse events (TEAE), laboratory parameters, ECG, performance status, physical examinations. DLT were defined upfront, the DLT period included the first three treatment weeks.

advanced solid tumors = test: Tumor assessment by investigators according to RECIST V1.1; assay type: in vivo, human
Description: Tumors were assessed by investigators according to RECIST V1.1 at baseline, after 6 weeks and every 3 months thereafter. Efficacy Population: patients with at least one tumor assessment (RECIST) after treatment start

[2] = Full-length peptide in cell culture media after peptide addition; assay type: in vitro ADME; details: cell cultures, 1–2 h after the peptide addition; unpublished data
cell cultures = details: cited from earlier work
[3] = Plasma pharmacokinetics of ATX-101 on first infusion day, non-compartmental (Phoenix WinNonlin); details: for tmax Median [Min;Max]: from infusion start
Description: Blood samples for a complete pharmacokinetic (PK) profile were collected on the first infusion day. On days 8, 15, and 36 samples were collected during the infusion only. Plasma trough levels were assessed on Days 3 and Day 43.
Primary PK Population: patients with at least 2 measurable plasma concentration time points after the end of infusion on D1

[4] = 30 mg/m^2 i.v. infusion, first infusion day, plasma, primary PK population, n = 1
[5] = 45 mg/m^2 i.v. infusion, first infusion day, plasma, primary PK population, mean (SD), n = 4
[6] = 60 mg/m^2 i.v. infusion, first infusion day, plasma, primary PK population, mean (SD), n = 6
[7] = 60 mg/m^2 i.v. infusion, first infusion day, plasma, primary PK population, mean (SD), n = 8

Ac-MDRWLVKWKKKRKIRRRRRRRRRRR (N-terminus assumed) [ATX-101]
TEAE: Upper respiratory tract infection ([1]; Overall (n=25), Any Grade): 3 (12.0) n (%) | TEAE: Abdominal pain upper ([1]; Overall (n=25), Grade 3): 1 (4.0) n (%) | TEAE: Anemia ([1]; Overall (n=25), Grade 3): 4 (16.0) n (%) | TEAE: Fatigue ([1]; Overall (n=25), Grade 3): 1 (4.0) n (%) | TEAE: Hyperglycemia ([1]; Overall (n=25), Grade 3): 2 (8.0) n (%) | TEAE: Patients with at least one event ([1]; Overall (n=25), Grade 3): 15 (60.0) n (%) | Patients with infusion-related reactions (mild and moderate) ([1]; all 25 patients, 20-60 mg/m^2 weekly, despite premedication and stepwise infusion rate): 64% | TEAE of CTCAE grade 4/5 ([1]; all cohorts (n=25)): CTCAEs grade 4/5 were not observed | Maximum tolerated dose ([1]; doses up to 60 mg/m^2 weekly): not reached | Dose-limiting toxicities (DLT) ([1]; in vivo): not observed | IRR Grade 1 (mild), number of patients with IRR ([1]; in vivo): 9 (36.0) n (%) | IRR Grade 1 (mild), total number of IRRs ([1]; in vivo): 17 N | IRR Grade 2 (moderate), number of patients with IRR ([1]; in vivo): 13 (52.0) n (%) | IRR Grade 2 (moderate), total number of IRRs ([1]; in vivo): 45 N | IRR any grade, total number of IRRs ([1]; in vivo): 62 N | IRR: Patients with at least one event, number of patients with IRR ([1]; in vivo): 16 (64.0) n (%) | Patients with IRR in whom IRR was seen on the first infusion day ([1]; in vivo): 83% | TEAE: Abdominal pain upper ([1]; in vivo): 3 (12.0) n (%) | TEAE: Anemia ([1]; in vivo): 8 (32.0) n (%) | TEAE: Diarrhea ([1]; in vivo): 7 (28.0) n (%) | TEAE: Dysgeusia ([1]; in vivo): 3 (12.0) n (%) | TEAE: Erythema ([1]; in vivo): 3 (12.0) n (%) | TEAE: Fatigue ([1]; in vivo): 12 (48.0) n (%) | TEAE: Headache ([1]; in vivo): 3 (12.0) n (%) | TEAE: Hyperglycemia ([1]; in vivo): 3 (12.0) n (%) | TEAE: Infusion related reactions ([1]; in vivo): 16 (64.0) n (%) | TEAE: Insomnia ([1]; in vivo): 3 (12.0) n (%) | TEAE: Nausea ([1]; in vivo): 4 (16.0) n (%) | TEAE: Patients with at least one event ([1]; in vivo): 25 (100.0) n (%) | TEAE: Pyrexia ([1]; in vivo): 4 (16.0) n (%) | TEAE: Vascular access site bruising ([1]; in vivo): 3 (12.0) n (%) | Treatment-related TEAE: Anemia ([1]; in vivo): 2 (8.0) n (%) | Treatment-related TEAE: Diarrhea ([1]; in vivo): 4 (16.0) n (%) | Treatment-related TEAE: Dysgeusia ([1]; in vivo): 3 (12.0) n (%) | Treatment-related TEAE: Erythema ([1]; in vivo): 2 (8.0) n (%) | Treatment-related TEAE: Fatigue ([1]; in vivo): 8 (32.0) n (%) | Treatment-related TEAE: Flushing ([1]; in vivo): 2 (8.0) n (%) | Treatment-related TEAE: Hyperglycemia ([1]; in vivo): 2 (8.0) n (%) | Treatment-related TEAE: Infusion-related reactions ([1]; in vivo): 16 (64.0) n (%) | Treatment-related TEAE: Patients with at least 1 event ([1]; in vivo): 23 (92.0) n (%) | Treatment-related adverse events of grade 3 ([1]; in vivo): one grade 3 adverse event | Vital signs, ECG, and laboratory values ([1]; in vivo): didn’t show a trend of changes | Recommended phase 2 dose (RP2D), monotherapy ([1]; in vivo, iv): 60 mg/m^2 | Median time to treatment discontinuation (advanced solid tumors; 12 patients of long-term follow-up study, range [7–74]): 18 weeks | Stable disease at the end of the dose escalation study (advanced solid tumors; Efficacy Population (n = 20), after 6 weeks, RECIST V1.1): 70% | Disease stabilization over at least 4.1 months (advanced solid tumors; Efficacy Population, Cohort 1 (20 mg/m^2)): 50% | Disease stabilization over at least 4.1 months (advanced solid tumors; Efficacy Population, Cohort 2 (30 mg/m^2)): 33.3% | Disease stabilization over at least 4.1 months (advanced solid tumors; Efficacy Population, Cohort 3 (45 mg/m^2)): 50% | Disease stabilization over at least 4.1 months (advanced solid tumors; Efficacy Population, Cohort 4 (60 mg/m^2)): 33.3% | Partial or complete tumor responses (advanced solid tumors; Efficacy Population, RECIST V1.1): No tumor responses were observed; also recorded: No partial or complete responses were observed | Stable disease at treatment discontinuation (advanced solid tumors; long-term follow-up, 5 of 12 patients): 41.7% | Progressive disease at treatment discontinuation (advanced solid tumors; long-term follow-up, 7 of 12 patients): 58.3% | Full-length peptide in the culture media [2]: no full-length peptide was found | Duration of activity (inhibition of growth, increased apoptosis) after addition of the peptide (cell cultures): up to five days | tmax Median [Min;Max] ([3]; 20 mg/m^2 i.v. infusion, first infusion day, plasma, primary PK population, n = 1): 2.02 [N/A] h | tmax Median [Min;Max] [3, 4]: 2.98 [N/A] h | CL [3, 4]: 14,400 mL/h/m^2 | Vz [3, 4]: 7970 mL/m^2 | kel [3, 4]: 1.81 h⁻¹ | tmax Median [Min;Max] ([3]; 45 mg/m^2 i.v. infusion, first infusion day, plasma, primary PK population, median [min;max], n = 4): 2.37 [1.32;2.82] h | AUC0-t [3, 5]: 1980 (427) h × ng/mL | AUC(0-inf) [3, 5]: 2200 (591) h × ng/mL | CL [3, 5]: 21,500 (6120) mL/h/m^2 | Cmax [3, 5]: 1150 (166) ng/mL | Vz [3, 5]: 13,100 (6830) mL/m^2 | kel [3, 5]: 2.25 (1.57) /h | tmax Median [Min;Max] ([3]; 60 mg/m^2 i.v. infusion, first infusion day, plasma, primary PK population, median [min;max], n = 8): 4.75 [1.60;9.12] h | CL [3, 6]: 17,800 (5880) mL/h/m^2 | MRT0-inf [3, 6]: 1.54 (0.66) h | Vz [3, 6]: 12,900 (5520) mL/m^2 | kel [3, 6]: 1.51 (0.46) /h | AUC0-t [3, 7]: 3320 (1260) h × ng/mL | Cmax [3, 7]: 1320 (815) ng/mL | Elimination half-life in blood ([3]; all dose levels (20, 30, 45, 60 mg/m^2)): less than 30 min | AUC0-t ([3]; human, plasma, iv, 20 mg/m2): 666 ng·h/mL | Cmax ([3]; human, plasma, iv, 20 mg/m2): 468 ng/mL | AUC0-t ([3]; human, plasma, iv, 30 mg/m2): 1900 ng·h/mL | AUC(0-inf) ([3]; human, plasma, iv, 30 mg/m2): 2080 ng·h/mL | Cmax ([3]; human, plasma, iv, 30 mg/m2): 720 ng/mL | MRT ([3]; human, plasma, iv, 30 mg/m2): 36.7 min | MRT ([3]; human, plasma, iv, 45 mg/m2): 53.3 min | AUC(0-inf) ([3]; human, plasma, iv, 60 mg/m2): 3700 ng·h/mL
